Experiments:
[1] = biological target: T1, Orexin/Hypocretin receptor type 1 (Homo sapiens, UniProt O43613); test: Antagonist activity at human OX1R expressed in CHOK1 cells assessed as inhibition of orexin A-induced intracellular calcium level preincubated for 15 mins followed by orexin A addition by Fura-2-AM dye based fluorescence assay
T1 sequence (O43613 whole entry): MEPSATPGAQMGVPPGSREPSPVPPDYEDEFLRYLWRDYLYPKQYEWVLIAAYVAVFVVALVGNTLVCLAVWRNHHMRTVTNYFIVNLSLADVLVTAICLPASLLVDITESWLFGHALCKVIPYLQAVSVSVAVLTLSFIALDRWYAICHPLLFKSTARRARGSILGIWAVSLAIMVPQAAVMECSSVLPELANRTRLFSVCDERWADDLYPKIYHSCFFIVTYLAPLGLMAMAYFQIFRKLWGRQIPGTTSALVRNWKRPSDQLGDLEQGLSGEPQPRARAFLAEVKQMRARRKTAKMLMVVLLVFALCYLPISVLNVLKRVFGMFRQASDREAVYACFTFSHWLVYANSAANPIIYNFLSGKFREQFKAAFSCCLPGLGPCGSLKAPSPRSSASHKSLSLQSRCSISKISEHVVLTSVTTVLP

[2] = Selectivity index, ratio of IC50 for human OX2R expressed in CHOK1 cells to IC50 for human OX1R expressed in CHOK1 cells
[3] = Solubility of the compound in water; type: physicochemical; conditions: buffer
[4] = Solubility of the compound in saline; type: physicochemical; conditions: buffer

SMILES	Ki [1] [nM]	Ratio IC50 [2]	solubility [3]	solubility [4]
COc1ccc2c3c1O[C@H]1[C@H](N(C)C(=O)/C=C/c4ccccn4)CC[C@@]4(O)[C@@H](C2)N(S(=O)(=O)c2ccccc2N(C)C)CC[C@]314	1.36			
COc1ccc2c3c1O[C@H]1[C@H](N(C)C(=O)/C=C/c4ccoc4)CC[C@@]4(O)[C@@H](C2)N(S(=O)(=O)c2cccc(C)c2)CC[C@]314	2.98	<88.4	Insoluble	Insoluble
CN(C(=O)/C=C/c1ccco1)[C@@H]1CC[C@@]2(O)[C@H]3Cc4ccc(O)c5c4[C@@]2(CCN3CC2CC2)[C@H]1O5	751	<88.4	Insoluble	Insoluble
COc1ccc2c3c1O[C@H]1[C@H](N(C)C(=O)/C=C/c4ccoc4)CC[C@@]4(O)[C@@H](C2)N(S(=O)(=O)c2ccc(C)cc2)CC[C@]314	5.85	<88.4	Insoluble	Insoluble
COc1ccc2c3c1O[C@H]1[C@H](N(C)C(=O)/C=C/c4ccoc4)CC[C@@]4(O)[C@@H](C2)N(S(=O)(=O)c2ccccc2N(C)C)CC[C@]314.Cl	1.92	<88.4	Insoluble	Insoluble
COc1ccc2c3c1O[C@H]1[C@H](N(C)C(=O)/C=C/c4ccoc4)CC[C@@]4(O)[C@@H](C2)N(S(=O)(=O)c2cccc(F)c2)CC[C@]314	7.6	<88.4	Insoluble	Insoluble
COc1ccc2c3c1O[C@H]1[C@H](N(C)C(=O)/C=C/c4ccoc4)CC[C@@]4(O)[C@@H](C2)N(S(=O)(=O)c2c(C)cc(C)cc2C)CC[C@]314	4.16	<88.4	Insoluble	Insoluble
COc1ccc(S(=O)(=O)N2CC[C@]34c5c6ccc(OC)c5O[C@H]3[C@H](N(C)C(=O)/C=C/c3ccoc3)CC[C@@]4(O)[C@H]2C6)cc1	8.99	<88.4	Insoluble	Insoluble
COc1ccc2c3c1O[C@H]1[C@H](N(C)C(=O)/C=C/c4cccnc4)CC[C@@]4(O)[C@@H](C2)N(S(=O)(=O)c2ccccc2N(C)C)CC[C@]314	42.3			
CN(Cc1ccccc1)[C@@H]1CC[C@@]2(O)[C@H]3Cc4ccc(O)c5c4[C@@]2(CCN3CC2CC2)[C@H]1O5.Cl		<88.4	Insoluble	Insoluble
COc1ccc2c3c1O[C@H]1[C@H](N(C)C(=O)/C=C/c4ccoc4)CC[C@@]4(O)[C@@H](C2)N(S(=O)(=O)c2cccc(Cl)c2)CC[C@]314	3.47	<88.4	Insoluble	Insoluble
COc1ccc2c3c1O[C@H]1[C@H](N(C)C(=O)/C=C/c4ccoc4)CC[C@@]4(O)[C@@H](C2)N(S(=O)(=O)c2cccc([N+](=O)[O-])c2)CC[C@]314	5.05	<88.4	Insoluble	Insoluble
COc1ccc2c3c1O[C@H]1[C@H](N(C)C(=O)/C=C/c4ccoc4)CC[C@@]4(O)[C@@H](C2)N(S(=O)(=O)c2ccccc2Br)CC[C@]314	2.1	<88.4	Insoluble	Insoluble
COc1ccccc1S(=O)(=O)N1CC[C@]23c4c5ccc(OC)c4O[C@H]2[C@H](N(C)C(=O)/C=C/c2ccoc2)CC[C@@]3(O)[C@H]1C5	6.37	<88.4	Insoluble	Insoluble
COc1ccc2c3c1O[C@H]1[C@H](N(C)C(=O)/C=C/c4ccoc4)CC[C@@]4(O)[C@@H](C2)N(S(=O)(=O)c2cccc(Br)c2)CC[C@]314	2.27	<88.4	Insoluble	Insoluble
COc1ccc2c3c1O[C@H]1[C@H](N(C)C(=O)/C=C/c4ccoc4)CC[C@@]4(O)[C@@H](C2)N(S(=O)(=O)C2CC2)CC[C@]314	12.1	<88.4	Insoluble	Insoluble
COc1ccc2c3c1O[C@H]1[C@H](N(C)C(=O)/C=C/c4ccoc4)CC[C@@]4(O)[C@@H](C2)N(S(=O)(=O)c2cccc(N(C)C)c2)CC[C@]314.Cl	7.25	<88.4	Insoluble	Insoluble

SMILES	Ki [1] [nM]	Ratio IC50 [2]	solubility [3]	solubility [4]
COc1ccc2c3c1O[C@H]1[C@H](N(C)C(=O)/C=C/c4ccoc4)CC[C@@]4(O)[C@@H](C2)N(S(=O)(=O)c2ccc(Br)cc2)CC[C@]314	6.21	<88.4	Insoluble	Insoluble
COc1ccc2c3c1O[C@H]1[C@H](N(C)C(=O)/C=C/c4ccoc4)CC[C@@]4(O)[C@@H](C2)N(S(=O)(=O)c2ccccc2Cl)CC[C@]314	1.93	<88.4	Insoluble	Insoluble
COc1ccc2c3c1O[C@H]1[C@H](N(C)C(=O)/C=C/c4ccoc4)CC[C@@]4(O)[C@@H](C2)N(S(=O)(=O)c2ccc(C(F)(F)F)cc2)CC[C@]314	12.6	<88.4	Insoluble	Insoluble
COc1ccc2c3c1O[C@H]1[C@H](N(C)C(=O)/C=C/c4ccoc4)CC[C@@]4(O)[C@@H](C2)N(S(=O)(=O)c2ccc(Cl)cc2)CC[C@]314	5.13	<88.4	Insoluble	Insoluble
COc1cccc(S(=O)(=O)N2CC[C@]34c5c6ccc(OC)c5O[C@H]3[C@H](N(C)C(=O)/C=C/c3ccoc3)CC[C@@]4(O)[C@H]2C6)c1	2.44	<88.4	Insoluble	Insoluble
COc1ccc2c3c1O[C@H]1[C@H](N(C)C(=O)/C=C/c4ccoc4)CC[C@@]4(O)[C@@H](C2)N(S(=O)(=O)c2cccc(C#N)c2)CC[C@]314	7.3	<88.4	Insoluble	Insoluble
COc1ccc2c3c1O[C@H]1[C@H](N(C)C(=O)/C=C/c4ccoc4)CC[C@@]4(O)[C@@H](C2)N(S(=O)(=O)c2ccccc2C#N)CC[C@]314	1.96	<88.4	Insoluble	Insoluble
COc1ccc2c3c1O[C@H]1[C@H](N(C)C(=O)/C=C/c4ccoc4)CC[C@@]4(O)[C@@H](C2)N(S(=O)(=O)c2ccccc2C)CC[C@]314	1.7	<88.4	Insoluble	Insoluble
COc1ccc2c3c1O[C@H]1[C@H](N(C)C(=O)/C=C/c4ccoc4)CC[C@@]4(O)[C@@H](C2)N(S(=O)(=O)c2ccc([N+](=O)[O-])cc2)CC[C@]314	12.5	<88.4	Insoluble	Insoluble
CN(C(=O)/C=C/c1ccccc1)[C@@H]1CC[C@@]2(O)[C@H]3Cc4ccc(O)c5c4[C@@]2(CCN3CC2CC2)[C@H]1O5.Cl	389	<88.4	Insoluble	Insoluble
COc1ccc2c3c1O[C@H]1[C@H](N(C)C(=O)/C=C/c4ccoc4)CC[C@@]4(O)[C@@H](C2)N(S(=O)(=O)c2ccc(C#N)cc2)CC[C@]314	13.9	<88.4	Insoluble	Insoluble
COc1ccc2c3c1O[C@H]1[C@H](N(C)C(=O)/C=C/c4ccoc4)CC[C@@]4(O)[C@@H](C2)N(C(C)=O)CC[C@]314	541	<88.4	Insoluble	Insoluble
COc1ccc2c3c1O[C@H]1[C@H](N(C)C(=O)/C=C/c4ccoc4)CC[C@@]4(O)[C@@H](C2)N(S(=O)(=O)c2ccccc2C(F)(F)F)CC[C@]314	2.05	<88.4	Insoluble	Insoluble
CN(C)c1ccc(S(=O)(=O)N2CC[C@]34c5c6ccc(O)c5O[C@H]3[C@H](N(C)C(=O)/C=C/c3ccoc3)CC[C@@]4(O)[C@H]2C6)cc1	320			
CCCCS(=O)(=O)N1CC[C@]23c4c5ccc(OC)c4O[C@H]2[C@H](N(C)C(=O)/C=C/c2ccoc2)CC[C@@]3(O)[C@H]1C5	5.94	<88.4	Insoluble	Insoluble
COc1ccc2c3c1O[C@H]1[C@H](N(C)C(=O)/C=C/c4ccoc4)CC[C@@]4(O)[C@@H](C2)N(S(=O)(=O)c2ccccc2F)CC[C@]314	2.07	<88.4	Insoluble	Insoluble
COc1ccc2c3c1O[C@H]1[C@H](N(C)C(=O)/C=C/c4ccoc4)CC[C@@]4(O)[C@@H](C2)N(S(=O)(=O)c2cccc(C(F)(F)F)c2)CC[C@]314	6.19	<88.4	Insoluble	Insoluble

— ChEMBL document CHEMBL3992519 (J Med Chem, 2017)
